Where a name gives a salt, the structure may show the parent alone. Read-outs that look alike come from different tables or passages of the source.
How the values were obtained:
full-length human RORγt = full-length human RORγt (Homo sapiens (Human), UniProt P51449); assay: RORγt (full-length human) reporter assay, conditions A or B, HEK293T cells; format: cell-based; settings: for inhibition at 0.67 µM / inhibition at 2 µM / inhibition at 3 µM: HEK-293T, read-out: RORγt (FL) Reporter Assay A or B, % inhibition; for IC50: RORγt (FL) Reporter Assay A or B, IC50, HEK293T cells; for inhibition at 2 µM: 2 μM compound concentration; for inhibition at 3 µM: 3 μM compound concentration (footnote *)
Procedure, shortened: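 After 16–20 h, dual firefly/Renilla luciferase luminescence was read. Firefly signal was normalized to DMSO and saturating reference compound, then to Renilla, and fitted for IC50; % inhibition is versus DMSO.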

[1] = target: human RORγt ligand binding domain (RORγt LBD) (Homo sapiens (Human), UniProt P51449); assay: RORγt ThermoFluor® assay (thermal shift binding)
Procedure, shortened: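 Thermal shift with 0.065 mg/mL RORγt LBD and 60 μM 1,8-ANS in 100 mM Hepes pH 7.0, 10 mM NaCl, 2.5 mM GSH, 0.002% Tween-20.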

[2] = read-out: ThermoFluor® Assay, Kd

Sequence of human RORγt ligand binding domain (RORγt LBD) (P51449 other isoform, or with tags, fused parts or gaps): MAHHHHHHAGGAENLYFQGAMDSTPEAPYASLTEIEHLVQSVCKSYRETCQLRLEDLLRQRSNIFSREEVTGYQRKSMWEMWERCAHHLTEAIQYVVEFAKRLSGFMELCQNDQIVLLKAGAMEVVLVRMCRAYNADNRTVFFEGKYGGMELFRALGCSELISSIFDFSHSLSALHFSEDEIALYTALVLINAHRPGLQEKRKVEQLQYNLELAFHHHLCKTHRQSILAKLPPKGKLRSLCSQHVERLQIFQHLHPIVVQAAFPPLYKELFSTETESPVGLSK
Sequence of full-length human RORγt (P51449 other isoform, or with tags, fused parts or gaps): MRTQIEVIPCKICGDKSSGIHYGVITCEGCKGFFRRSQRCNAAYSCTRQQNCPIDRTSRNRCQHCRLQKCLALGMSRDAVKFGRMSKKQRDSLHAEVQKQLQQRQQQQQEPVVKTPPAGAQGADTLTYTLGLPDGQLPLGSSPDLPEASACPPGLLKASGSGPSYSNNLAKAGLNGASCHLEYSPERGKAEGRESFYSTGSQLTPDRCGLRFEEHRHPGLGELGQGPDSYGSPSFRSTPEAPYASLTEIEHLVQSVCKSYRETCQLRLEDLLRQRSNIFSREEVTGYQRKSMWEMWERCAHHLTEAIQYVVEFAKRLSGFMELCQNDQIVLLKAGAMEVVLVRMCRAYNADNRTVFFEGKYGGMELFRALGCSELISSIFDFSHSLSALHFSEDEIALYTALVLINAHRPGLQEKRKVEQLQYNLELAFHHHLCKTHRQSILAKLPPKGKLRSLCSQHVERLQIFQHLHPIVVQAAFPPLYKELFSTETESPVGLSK

CCn1nc(C(=O)NC[C@H]2CC[C@H](S(C)(=O)=O)CC2)c(Cl)c1-c1ccc(CC(C(F)(F)F)C(F)(F)F)cc1OC [Example 84, 4-Chloro-1-ethyl-5-(2-methoxy-4-(3,3,3-trifluoro-2-(trifluoromethyl)propyl)phenyl)-N-(((1r,4r)-4-(methylsulfonyl)cyclohexyl)methyl)-1H-pyrazole-3-carboxamide]
inhibition at 0.67 µM (full-length human RORγt): 87%
IC50 (full-length human RORγt): 10 nM
Kd [1, 2]: 0.7 nM

CCn1nc(C(=O)NC[C@H]2CC[C@H](S(C)(=O)=O)CC2)c(Cl)c1-c1ccc(N[C@H](C)C(F)(F)F)cc1C(F)(F)F [Example 172, 4-Chloro-1-ethyl-N-(((1r,4R)-4-(methylsulfonyl)cyclohexyl)methyl)-5-(2-(trifluoromethyl)-4-(((R)-1,1,1-trifluoropropan-2-yl)amino)phenyl)-1H-pyrazole-3-carboxamide]
inhibition at 2 µM (full-length human RORγt): 100%
IC50 (full-length human RORγt): 28 nM
Kd [1, 2]: 3.8 nM

CCc1c(C(=O)NC[C@H]2CC[C@H](S(C)(=O)=O)CC2)nn(CC)c1-c1ccc(N[C@H](C)C(F)(F)F)cc1OC [Example 130, 1,4-Diethyl-5-(2-methoxy-4-(((R)-1,1,1-trifluoropropan-2-yl)amino)phenyl)-N-(((r,4R)-4-(methylsulfonyl)cyclohexyl)methyl)-1H-pyrazole-3-carboxamide]
inhibition at 2 µM (full-length human RORγt): 100%
IC50 (full-length human RORγt): 61 nM
Kd [1, 2]: 9.9 nM

CCn1nc(C(=O)NC[C@H]2CC[C@H](S(C)(=O)=O)CC2)c(Cl)c1-c1ccc(C2(O)CCC(C(F)(F)F)CC2)cc1OC(F)F (single isomer, unassigned) [Example 115, 4-Chloro-5-(2-(difluoromethoxy)-4-((1r*,4r*)-1-hydroxy-4-(trifluoromethyl)cyclohexyl)phenyl)-1-ethyl-N-(((1r,4r)-4-(methylsulfonyl)cyclohexyl)methyl)-1H-pyrazole-3-carboxamide]
inhibition at 3 µM (full-length human RORγt): 89%
IC50 (full-length human RORγt): 16 nM
Kd ([1]; ThermoFluor® Assay, Kd): 32 nM

CCn1nc(C(=O)NC[C@H]2CC[C@H](S(C)(=O)=O)CC2)c(Cl)c1-c1ccc(C[C@@H](C)C(F)(F)F)cc1OC (single isomer, unassigned) [Example 1, 4-Chloro-1-ethyl-5-(2-methoxy-4-((R*)-3,3,3-trifluoro-2-methylpropyl)phenyl)-N-(((1r,4R)-4-(methylsulfonyl)cyclohexyl)methyl)-1H-pyrazole-3-carboxamide]
inhibition at 0.67 µM (full-length human RORγt; 0.67 μM compound concentration (footnote ****)): 99%
IC50 (full-length human RORγt): 6 nM
Kd ([1]; ThermoFluor® Assay, Kd): 0.6 nM

CCOC(=O)[C@]1(CNC(=O)c2nn(CC)c(-c3ccc(N[C@H](C)C(F)(F)F)cc3OC)c2Cl)CC[C@@H](S(C)(=O)=O)CC1 (relative stereo) [Example 95, Ethyl (1r*,4R*)-1-((4-chloro-1-ethyl-5-(2-methoxy-4-(((R)-1,1,1-trifluoropropan-2-yl)amino)phenyl)-1H-pyrazole-3-carboxamido)methyl)-4-(methylsulfonyl)cyclohexane-1-carboxylate]
inhibition at 2 µM (full-length human RORγt): 76%
IC50 (full-length human RORγt): 380 nM
Kd ([1]; ThermoFluor® Assay, Kd): 110 nM

COCCn1nc(C(=O)NC[C@H]2CC[C@H](S(C)(=O)=O)CC2)c(Cl)c1-c1ccc(CC(C)(C)C(F)(F)F)cc1OC [Example 185, 4-Chloro-5-(2-methoxy-4-(3,3,3-trifluoro-2,2-dimethylpropyl)phenyl)-1-(2-methoxyethyl)-N-(((1r,4r)-4-(methylsulfonyl)cyclohexyl)methyl)-1H-pyrazole-3-carboxamide]
inhibition at 2 µM (full-length human RORγt): 92%
IC50 (full-length human RORγt): 30 nM
Kd [1, 2]: 2.4 nM

CCn1nc(C(=O)NC[C@]2(O)CC[C@@H](S(C)(=O)=O)C[C@H]2N)c(Cl)c1-c1ccc(CC(C)(C)C(F)(F)F)cc1OC(F)F (stereo in doubt) [Example 5, N-(((1RS,2RS,4RS)-2-Amino-1-hydroxy-4-(methylsulfonyl)cyclohexyl)methyl)-4-chloro-5-(2-(difluoromethoxy)-4-(3,3,3-trifluoro-2,2-dimethylpropyl)phenyl)-1-ethyl-1H-pyrazole-3-carboxamide Hydrobromide]
inhibition at 3 µM (full-length human RORγt): 103%
IC50 (full-length human RORγt): 120 nM
Kd ([1]; ThermoFluor® Assay, Kd): 1.7 nM

From patent US10975037B2 (priority 2018, dated 2021)
